Test results from patent publication US20110200531A1, “TREATMENT AND DIAGNOSIS OF CENTRAL NERVOUS SYSTEM DISORDERS” (THE REGENTS OF THE UNIVERSITY OF CALIFORNIA, priority 2009, published 2011).
“Also recorded” adds a separate entry of the source.

Tests used:
Tg2576 mice = experiment: Aβ-related vaccinations in Tg2576 mice: retinal and brain pathology; type: in vivo; details: for Aβ deposits in hippocampal and neocortical areas of brain (6E10) / Aβ immunoreactivity in retinal microvessels / retinal amyloid angiopathy score: 10-month vaccination; for Aβ immunoreactivity in retinal microvessels / retinal amyloid angiopathy score: Aβ and vWF double-labeled microvessels, vs sham-immunized Tg2576
Procedure: The Aβ oligomer antigen was prepared from Aβ1-40 based on our previously published work (Kayed et al., 2003). Briefly, lyophilized Aβ1-40 peptides were resuspended in 50% acetonitrile in water and relyophilized. Soluble prefibrillar oligomers were prepared by dissolving 1.0 mg of peptide in 400 μl of hexafluoroisopropanol for 10˜20 minutes at room temperature. The resultant seedless solution (100 μl) was added to 900 μl of MilliQ H2O in a siliconized Eppendorf tube. After 10˜20 minutes incubation at room temperature, the samples were centrifuged for 15 minutes at 14,000×g, and the supernatant fraction (pH 2.8˜3.5) was transferred to a new siliconized tube and subjected to a gentle stream of N2 for 5˜10 minutes to evaporate the hexafluoroisopropanol. […] Oligomers were validated by atomic force microscopy, electron microscopy, and size exclusion chromatography as described previously (Kayed et al., 2003). The Aβ fibril was prepared from Aβ1-42, because it is more fibrillogenic as compared with Aβ1-40. Aβ1-40, predominantly in fibrillary form, was previously studied in a randomized, double-blind, placebo-controlled phase 2a clinical trial, study AN1792(QS-21)-201 by Gilman and colleagues (Gilman et al., 2005). Fibrils were formed by dissolving the lyophilized Aβ1-42 in 50% hexafluoroisopropanol and stirred with closed caps for 7 days. Solution is stirred again for 2 days in capped tubes with 20-gauge needle holes on the top to allow the hexafluoroisopropanol to evaporate. This whole preparation was done in a fume food to accelerate evaporation and minimize falling of dust or other foreign material. Fibrils were precipitated by centrifugation for 15 minutes at 14,000 rpm and washed in PBS, and resuspended at 2 mg/ml. For the prefibrillar oligomer antigen, Aβ oligomer (AO) molecular mimic was prepared by conjugating Aβ1-40 via a C-terminal thioester to 5-nm colloidal gold as described previously (Kayed and Glabe, 2006). […] Immunization schemes were conducted in a similar way as described previously (Zhou et al., 2005). […] Administration of an equivalent volume of PBS with the adjuvant but without any peptide antigen to both wild-type and transgenic mice was used as control. All experimental procedures were performed under protocols approved by the University of California Irvine Institutional Animal Care and Use Committee. Tissue Preparation: Mice were deeply anesthetized with an overdose of Nembutal (100 mg/kg, i.p.) and perfused transcardially with ice-cold PBS. The eyes were directly collected and fixed overnight with 4% paraformaldehyde in PBS (pH 7.4, 4° C.) following brain removal. Fixed eyes were stored in PBS containing 20% sucrose and 0.05% sodium azide (NaN3) at 4° C. until use. Following removal of lenses with forceps fixed eyes were cryomolded with OCT. Cross-retinal cryostat sections (12 μm) were thaw-mounted onto “Superfrost plus” glass slides (Fisher, Tustin, Calif.), air-dried for 30 minutes and stored at 4° C. before staining. […] Immunohistochemistry and Quantification: […] The immunoreactivity of APP, hyperphosphorylated tau (AT8), and Aβ in selected sections was also detected using the avidin-biotin complex method, followed by staining with DAB and brief counterstaining with hematoxylin. […] The results were evaluated by either fluorescence or conventional microscopy with a Leica DM microscope. Images were recorded using a Spot II charge-coupled device camera with equal exposure times for all different groups of tissues. […]

3×Tg-AD mice = experiment: Learning and memory in 3×Tg AD mice (novel object recognition, Morris water maze); type: in vivo; details: 16-month old 3×Tg-AD females
Procedure: Both 16-month old 3×Tg-AD and background-matched wild type (WT) mice (females) were fed with TMPcontaining or nutrients matched control for 60 days as described in FIG. 3. (A) On day 61, all the mice were tested for object recognition as previously described. Briefly, mice (n=14 for each group) were habituated to a 60×30 cm container for 5 min. Two identical objects were placed in the bottom of the cage as mirror images of each other. The animal was trained for 5 min followed by a 5 min retention interval in the home cage. Then one of the objects in the test container was replaced with a novel object. During the 3-min probe trial, the mouse was placed in the cage and time spent investigating both objects was measured. A recognition index (R1) score is depicted as: (TimeN (in seconds for novel object)/TimeTotal (in seconds for both old and novel objects))×100. (B-D) Starting on day 62, all the mice were trained for 9 days on the Morris water maze (MWM) exactly as described for the behavior testing. […] (C) MWMprobe trial for number of platform location crosses, and (D) MWM probe trial for time spent in the target quadrant. As shown by the p values, (*) indicates significant improvement by TMP treatments with respect to the corresponding controls.
FIG. 21A-D: Improvement of learning and memory in aged 3×Tg AD mice by TMP treatment. Novel object recognition task was performed. A recognition index (R1) score is depicted as: [TimeN (in seconds for novel object)/TimeTotal (in seconds for both old and novel objects)]×100. B-D Starting on day 62, all the mice were trained for 9 days on the Morris water maze (MWM) for the behavior testing. […] (C) MWM probe trial for number of platform location crosses, and (D) MWM probe trial for time spent in the target quadrant. As shown by the p values, (*) indicates significant improvement by the compound treatments with respect to the corresponding controls.
TMP improves pathology in brains of 3×Tg-AD mice and results in increased memory and learning (See FIGS. 3, 4, and 10). In these mice, the earliest pathological hallmark is the accumulation of intraneuronal Aβ in the hippocampus, cortex and amygdala in 4 month old 3×Tg-AD homozygous mice. […] Between 4-6 months of age 3×Tg-AD homozygous mice develop diffuse amyloid plaques in the neocortex. At 6 months the retention deficits are associated with significant impairments in spatial learning of the Morris Water Maze task. […] Brain and retina pathology was evaluated by immunohistochemistry with specific antibodies and learning and memory performance were scored using the Novel Object Recognition Task and using Morris Water Maze trials.
The ability of TMP-N to improve learning and memory in 3×Tg AD mice was assessed using novel object recognition task. […]

[1] = tested on: SH-SY5Y human neuroblastoma cells; experiment: Survival of SH-SY5Y cells following exposure to hydrogen peroxide; type: cell-based; details: for cell survival following exposure to hydrogen peroxide: SH-SY5Y, 25-50 μM, hydrogen peroxide 10-100 μM; for oxidative stress measured by production of malondialdehyde (MDA) and hydrogen peroxide: cultured cells (cell type not specified); for difference in protective efficacy between the two differently-sourced TMP compounds: statistical analysis, TMP-N vs TMP-S
mouse primary neurons = experiment: Survival of mouse primary neurons following exposure to hydrogen peroxide; type: cell-based; details: 25-50 μM, hydrogen peroxide 10-100 μM
5×FAD mice = experiment: Novel object recognition task in 5×FAD mice; type: in vivo; details: chow containing 300 mg/Kg from postnatal day 61 for 4 months; N=8-12
Procedure: FIG. 22: Improvement of memory in 5×FAD mice by synthetic form of TMP treatments. Novel object recognition task was performed and depicted as FIG. 21.
Wild type littermates were used for comparison. All the mice were fed with normal chow (Vehicle) or containing 300 mg/Kg either TMP-N or TMP-S from postnatal day 61 for exactly 4 months until the day for the completion of behavioral assessments.

5×FAD mouse brains = experiment: Abeta immunoreactivity (6E10) in 5×FAD mouse brains; type: in vivo, mice; details: chow containing 300 mg/Kg from postnatal day 61 for 4 months
Text: Animal tissues were perfused with 1×PBS followed by overnight fixation in 4% paraformaldehyde in cold room. Vibrotome sections (˜50 μm thick) were immunostained with 6E10 antibody, which recognizes all forms of Abeta, and visualized by fluorescence microscopy.

5×FAD mouse retinas = experiment: Retinal ganglion cell (RGC) quantification in 5×FAD mouse retinas; type: in vivo, mice; details: chow containing 300 mg/Kg from postnatal day 61 for 4 months
Procedure: FIG. 24: Preservation of retinal ganglion cells (RGC) in 5×FAD mice by TMP (see Section 6.3.1). Numbers of RGC of wild-type, control (Vehicle) and TMP-treated mice were quantified.
5×FAD mice and wild type littermates (control) were fed with normal chow (Vehicle) or chow containing 300 mg/Kg of either TMP-N or TMP-S (see Section 6.3.1) from postnatal day 61 for exactly 4 months until the day of analysis. RGC cells were quantified in cross retinal sections as described in Liu et al., American Journal of Pathology, 2009.

Molecule | Aβ deposits in hippocampal and neocortical areas of brain (6E10) (Tg2576 mice) | Aβ immunoreactivity in retinal microvessels / retinal amyloid angiopathy score (Tg2576 mice) | number of Aβ plaques / Aβ deposits in retina (Tg2576 mice; 100 μg s.c. with incomplete Freund's adjuvant once a month for 10 months, vs PBS adjuvant) | Morris water maze (MWM) acquisition performance (3×Tg-AD mice; TMP diet 60 days, trained 9 days from day 62) | learning and memory (object recognition, MWM probe trials) (3×Tg-AD mice; TMP-containing diet) | cell survival following exposure to hydrogen peroxide [1] | oxidative stress measured by production of malondialdehyde (MDA) and hydrogen peroxide [1] | difference in protective efficacy between the two differently-sourced TMP compounds [1] | cell survival following exposure to hydrogen peroxide (mouse primary neurons) | memory performance, novel object recognition task (5×FAD mice) | Abeta immunoreactivity / deposits in brain (6E10) (5×FAD mouse brains) | number of retinal ganglion cells (RGC) (5×FAD mouse retinas)
AF: Aβ fibril prepared from Aβ1-42; vaccine immunogen | notably less Aβ deposits | even greater Aβ immunoreactivity |  |  |  |  |  |  |  |  |  | 
AO: Aβ oligomer molecular mimic prepared by conjugating Aβ1-40 via a C-terminal thioester to 5-nm colloidal gold; vaccine immunogen | notably less Aβ deposits | even greater Aβ immunoreactivity | significant reduction in the number of Aβ plaques |  |  |  |  |  |  |  |  | 
Cc1nc(C)c(C)nc1C [TMP-N, tetramethylpyrazine] |  |  |  | significantly improved the performance of 3×Tg-AD mice | significantly restored learning and memory | significantly increased cell survival | remarkable reduction of oxidative stress | no significant difference | significantly increased cell survival | some negative effects; also recorded: slight negative effect on the memory performance | Abeta deposits were decreased in both cortical and hippocampal regions | slightly preserved RGC; also recorded: slight protective effect on RGC
Cc1nc(C)c(C)nc1C [TMP-S, tetramethylpyrazine] |  |  |  |  |  | significantly increased cell survival | remarkable reduction of oxidative stress | no significant difference | significantly increased cell survival | significantly improved memory performance; also recorded: significantly improved this performance |  | significantly preserved RGC; also recorded: significantly increased number of RGC
